From patent US11453703B2, “Heterotandem bicyclic peptide complexes” (BicycleTX Limited, priority 2018, dated 2022)

Key:
human EphA2 protein = human EphA2 protein (Homo sapiens, UniProt P29317); experiment: EphA2 Biacore (SPR) binding assay; details: biotinylated human EphA2, 25° C.
Experimental: Biacore experiments were performed to determine ka (M^−1s^−1), kd (s^−1), KD (nM) values of heterotandem peptides binding to human EphA2 protein.
EphA2 were biotinylated with EZ-Link™ Sulfo-NHS-LC-Biotin for 1 hour in 4 mM sodium acetate, 100 mM NaCl, pH 5.4 with a 3× molar excess of biotin over protein. The degree of labelling was determined using a Fluorescence Biotin Quantification Kit (Thermo) after dialysis of the reaction mixture into PBS. For analysis of peptide binding, a Biacore T200 instrument was used with a XanTec CMD500D chip. Streptavidin was immobilized on the chip using standard amine-coupling chemistry at 25° C. with HBS-N (10 mM HEPES, 0.15 M NaCl, pH 7.4) as the running buffer. Briefly, the carboxymethyl dextran surface was activated with a 7 min injection of a 1:1 ratio of 0.4 M 1-ethyl-3-(3-dimethylaminopropyl) carbodiimide hydrochloride (EDC)/0.1 M N-hydroxy succinimide (NHS) at a flow rate of 10 it/min. For capture of streptavidin, the protein was diluted to 0.2 mg/ml in 10 mM sodium acetate (pH 4.5) and captured by injecting 120 μl onto the activated chip surface. Residual activated groups were blocked with a 7 min injection of 1 M ethanolamine (pH 8.5):HBS-N (1:1). Buffer was changed to PBS/0.05% Tween 20 and biotinylated EphA2 was captured to a level of 500-1500 RU using a dilution of protein to 0.2 μM in buffer. A dilution series of the peptides was prepared in this buffer with a final DMSO concentration of 0.5% with a top peptide concentration was 50 or 100 nM and 6 further 2-fold dilutions. The SPR analysis was run at 25° C. at a flow rate of 90 μl/min with 60 seconds association and 900-1200 seconds dissociation. Data were corrected for DMSO excluded volume effects. All data were double-referenced for blank injections and reference surface using standard processing procedures and data processing and kinetic fitting were performed using Scrubber software, version 2.0c (BioLogic Software). Data were fitted using simple 1:1 binding model allowing for mass transport effects where appropriate.

CD137 [1] = target: T1, CD137 (Homo sapiens, UniProt Q07011); experiment: CD137 Biacore (SPR) binding assay; set-up: purchased R&D systems; details: biotinylated human CD137, 25° C.
T1 sequence (Q07011 24-255): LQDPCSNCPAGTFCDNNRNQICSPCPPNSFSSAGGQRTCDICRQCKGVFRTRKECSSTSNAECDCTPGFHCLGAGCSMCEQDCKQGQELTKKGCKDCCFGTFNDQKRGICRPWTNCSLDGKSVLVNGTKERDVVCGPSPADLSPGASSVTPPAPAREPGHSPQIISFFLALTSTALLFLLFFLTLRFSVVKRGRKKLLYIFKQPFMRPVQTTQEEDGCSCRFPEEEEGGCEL
Summary of the method: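 Biotinylated human CD137 captured (270-1500 RU) on streptavidin-coupled dextran chip; peptides up to 500 nM in PBS/0.05% Tween 20, 0.5% DMSO, at 25°C, 60 s association, 900 s dissociation. Double-referenced data fitted to 1:1 binding model, with mass transport where appropriate.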

CD137 [2] = target: T1, CD137; experiment: CD137 reporter assay, co-culture with EphA2 tumour cells; assay type: cell-based; set-up: host or cells: Jurkat reporter cells; details: tumour target EphA2, co-culture with SC-OV-3, 6 h
Summary of the method: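 Jurkat CD137 reporter cells co-cultured with tumour cells and serially diluted test articles in RPMI-1640 + 1% FBS, 6 h at 37 °C, 5% CO2. Luminescence read after Bio-Glo; fold change over cells-only background fitted log(agonist) vs response for EC50 (nM) and maximal fold induction.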

[3] = Pharmacokinetics of CD137 bispecifics in SD rats; assay type: in vivo; details: male, Sprague-Dawley (SD), SD Rat, 2 mg/kg IV, plasma
Experimental: Male SD Rats were dosed with 2 mg/kg of each Bicycle multimer formulated in 25 mM Histidine HCl, 10% sucrose pH 7. Serial bleeding (about 80 μL blood/time point) was performed via submadibular or saphenous vein at each time point. All blood samples were immediately transferred into prechilled microcentrifuge tubes containing 2 μL K2-EDTA (0.5M) as anti-coagulant and placed on wet ice. Blood samples were immediately processed for plasma by centrifugation at approximately 4° C., 3000 g. The precipitant including internal standard was immediately added into the plasma, mixed well and centrifuged at 12,000 rpm, 4° C. for 10 minutes. The supernatant was transferred into pre-labeled polypropylene microcentrifuge tubes, and then quick-frozen over dry ice. The samples were stored at […] or below as needed until analysis. 7.5 μL of the supernatant samples were directly injected for LC-MS/MS analysis using an Orbitrap Q Exactive in positive ion mode to determine the concentrations of Bicycle multimer. Plasma concentration versus time data were analyzed by non-compartmental approaches using the Phoenix WinNonlin 6.3 software program. C0, CI, Vdss, T½, AUC(0-last), AUC(0-inf), MRT(0-last), MRT(0-inf) and graphs of plasma concentration versus time profile were reported.

[4] = tested on: human PBMC co-cultured with 4T1-D02 (Nectin4+); experiment: Human PBMC-4T1 co-culture (cytokine release) assay; assay type: cell-based; details: anti-CD3 stimulated PBMC, 48 hours
Experimental: Mouse mammary gland tumor cell line 4T1-1 (4T1-Parental) and murine Nectin-4 overexpressing 4T1 (4T1-D02) were cultured in RPMI1640 supplemented with 10% heat-inactivated Fetal Bovine Serum, 100 I.U/ml Penicillin and 100 I.U/Streptomycin, 20 mM HEPES, 1× Non-Essential Amino Acids, and 2 mM L-Glutamine (RPMI working medium). Frozen PBMCs from healthy human donors were thawed and washed one time in room temperature PBS, and then resuspended in RPMI working medium. For tumor cell and PBMC co-culture, 10000 PBMCs and 2000 tumor cells (5:1) were mixed and plated in each well of a 384 well plate. For stimulating human PBMCs, 125 ng/ml of soluble anti-CD3 mAb (clone OKT3) was added to the culture on day 0. Test, control compounds or vehicle controls were added to respective wells and brought the final volume per well to 100u1. Plates were incubated in a 37° C. cell culture incubator with 5% CO2 for up to three days. Supernatants were collected 48 hours after stimulation, and human IL-2 and IFFγ were detected using HTRF assays. Raw data were analyzed using Excel or Prism software to generate standard curves to interpolate protein concentrations. Data represents one study with three different donor PBMC tested in experimental duplicates.

CD137 [5] = target: T1, CD137; experiment: CD137 reporter assay, co-culture with Nectin-4 tumour cells; assay type: cell-based; set-up: host or cells: Jurkat reporter cells; details: tumour target Nectin4, co-culture with H1376, 6 h;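 also: jurkat reporter cells co-cultured with tumour cells and test article for 6 h, luminescence signal relative to Jurkat plus tumour cells lacking test article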
Experimental: Culture medium referred to as R1 media is prepared by adding 1% FBS to RPMI-1640 (component of Promega kit CS196005). Serial dilutions of test articles in R1 are prepared in a sterile 96 well-plate. Use 25 μl per well of test articles or R1 (as a background control) to designated wells in white cell culture plate. Tumour cells* are harvested and resuspended at a concentration of 400,000 cells/mL in R1 media. Twenty five (25) μL/well tumour cells are used in white cell culture plate. Jurkat cells (Promega kit CS196005, 0.5 mL) are thawed in the water bath and then added to 5 ml pre-warmed R1 medium. Twenty five (25) μL/well Jurkat cells are used in white cell culture plate. Incubate the cells and test articles for 6h at 37° C., 5% CO2. At the end of 6 h, add 75 μl/well Bio-Glo™ (Promega) and incubate for 10 min before reading luminescence in a plate reader (Clariostar, BMG). The fold change relative to cells (Jurkat cells+Cell line used in co-culture) is calculated and plotted in GraphPad Prism as log(agonist) vs response to determine EC50 (nM) and Fold Induction over background (Max)

human EphA2 protein, sequence (P29317 24-976): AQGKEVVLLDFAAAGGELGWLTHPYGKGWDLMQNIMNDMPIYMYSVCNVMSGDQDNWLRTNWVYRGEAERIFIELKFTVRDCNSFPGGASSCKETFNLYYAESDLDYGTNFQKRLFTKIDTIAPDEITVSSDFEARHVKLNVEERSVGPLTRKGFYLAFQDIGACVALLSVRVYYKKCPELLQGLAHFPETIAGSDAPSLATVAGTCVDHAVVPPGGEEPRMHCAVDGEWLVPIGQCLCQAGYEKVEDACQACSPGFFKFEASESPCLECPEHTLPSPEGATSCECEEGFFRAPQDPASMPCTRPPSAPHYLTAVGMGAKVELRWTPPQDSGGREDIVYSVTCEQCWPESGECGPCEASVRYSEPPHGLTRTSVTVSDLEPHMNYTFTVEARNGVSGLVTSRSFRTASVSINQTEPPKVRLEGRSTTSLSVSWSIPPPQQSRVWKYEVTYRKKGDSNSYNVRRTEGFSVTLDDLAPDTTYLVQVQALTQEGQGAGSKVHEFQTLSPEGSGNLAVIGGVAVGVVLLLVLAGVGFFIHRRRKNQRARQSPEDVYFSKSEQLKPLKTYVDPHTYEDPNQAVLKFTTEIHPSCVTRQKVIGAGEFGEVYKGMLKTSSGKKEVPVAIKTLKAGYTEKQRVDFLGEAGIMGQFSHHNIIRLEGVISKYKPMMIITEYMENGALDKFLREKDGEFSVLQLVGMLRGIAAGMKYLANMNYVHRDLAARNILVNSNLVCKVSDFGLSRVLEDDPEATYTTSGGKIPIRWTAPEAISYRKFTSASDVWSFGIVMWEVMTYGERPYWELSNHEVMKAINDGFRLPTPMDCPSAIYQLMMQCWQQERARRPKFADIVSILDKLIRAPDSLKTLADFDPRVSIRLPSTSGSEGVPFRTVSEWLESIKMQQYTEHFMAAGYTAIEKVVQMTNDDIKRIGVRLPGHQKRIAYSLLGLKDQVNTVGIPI

CCCC[C@@H]1NC(=O)[C@H](Cc2ccc(O)cc2)NC(=O)[C@@H]2CCCN2C(=O)[C@H](CC(=O)O)NC(=O)[C@H](C)NC(=O)[C@H](Cc2ccccc2)NC(=O)[C@@H]2CSCCC(=O)N3CN(CN(C3)C(=O)CCSC[C@@H](C(=O)N[C@@H](CNC(=O)CCc3cn(CCOCCOCCOCCOCCOCCNC(=O)NCCC(=O)N(C)CC(=O)N(C)CC(=O)N(C)CC(=O)N(C)CC(=O)N(C)CC(=O)N(C)CC(=O)N(C)CC(=O)N(C)CC(=O)N(C)CC(=O)N(C)CC(=O)N[C@@H](C)C(=O)N[C@@H](CCCCNC(=N)N)C(=O)N[C@@H](CC(=O)O)C(=O)N[C@H]4CSCCC(=O)N5CN6CN(C5)C(=O)CCSC[C@H](NC(=O)[C@H](CC(C)C)NC(=O)[C@@H]5CCCN5C(=O)[C@H](CC(N)=O)NC(=O)[C@H](C(C)C)NC(=O)[C@H](CC(C)C)NC(=O)[C@@H]5C[C@@H](O)CN5C4=O)C(=O)N[C@@H](CC(C)C)C(=O)N[C@@H](Cc4c[nH]cn4)C(=O)N4CCC[C@H]4C(=O)N[C@H](CC(=O)O)C(=O)N[C@@H](Cc4c[nH]c5ccccc45)C(=O)N[C@@H](CCCCNC(=N)N)C(=O)N[C@H](C(N)=O)CSCCC6=O)nn3)C(N)=O)NC1=O)C(=O)CCSC[C@H](NC(=O)[C@H](C)NC(C)=O)C(=O)N[C@@H]([C@@H](C)CC)C(=O)N[C@@H](CCC(=O)O)C(=O)N[C@@H](CCC(=O)O)C(=O)NCC(=O)N[C@@H](CCC(N)=O)C(=O)N[C@@H](Cc1ccc(O)cc1)C(=O)N2 [BCY9659]
Kd (human EphA2 protein): 1.03 nM | Kd (CD137 [1]): 88.1 nM | EC50 (CD137 [2]): 9.9 nM | Fold Induction over Background (CD137 [2]): 7 fold

CCCC[C@@H]1NC(=O)[C@H](Cc2ccc(O)cc2)NC(=O)[C@@H]2CCCN2C(=O)[C@H](CC(=O)O)NC(=O)[C@H](C)NC(=O)[C@H](Cc2ccccc2)NC(=O)[C@@H]2CSCCC(=O)N3CN(CN(C3)C(=O)CCSC[C@@H](C(=O)N[C@@H](CNC(=O)CCOCCOCCOCCOCCOCCOCCOCCOCCOCCOCCOCCOCCn3cc(CCC(=O)NCCC(=O)N(C)CC(=O)N(C)CC(=O)N(C)CC(=O)N(C)CC(=O)N(C)CC(=O)N(C)CC(=O)N(C)CC(=O)N(C)CC(=O)N(C)CC(=O)N(C)CC(=O)N[C@H]4CSCCC(=O)N5CN6CN(C5)C(=O)CCSC[C@H](NC(=O)[C@@H](CC(=O)O)NC(=O)[C@H](Cc5cccc7ccccc57)NC(=O)[C@@H]5CCCN5C4=O)C(=O)N[C@@H](CCSC)C(=O)N[C@@H](CCCCNC(=N)N)C(=O)N[C@@H](CC(=O)O)C(=O)N[C@@H](Cc4c[nH]c5ccccc45)C(=O)N[C@@H](CO)C(=O)N[C@@H]([C@@H](C)O)C(=O)N4CCC[C@H]4C(=O)N4C[C@H](O)C[C@H]4C(=O)N[C@@H](Cc4c[nH]c5ccccc45)C(=O)N[C@H](C(N)=O)CSCCC6=O)nn3)C(N)=O)NC1=O)C(=O)CCSC[C@H](NC(C)=O)C(=O)N[C@@H](CC(C)(C)C)C(=O)N1CCC[C@H]1C(=O)N[C@@H](CCC(=O)O)C(=O)N[C@H](C)C(=O)N1CCC[C@H]1C(=O)N[C@@H](Cc1ccc(O)cc1)C(=O)N2 [BCY10000]
clearance ([3]; read-out: Clp): 16.1 mL/min/kg | half-life ([3]; read-out: T½ (converted)): 21.4 min | Vd ([3]; read-out: Vdss): 0.395 L/kg | EC50 ([4]; IFN-γ secretion): 0.21 nM | max IFN-y [4]: 19642 pg/mL | Fold Induction over Background (CD137 [5]): 61 fold
